Publication PMC8387526, “Small peptide-based GLP-1R ligands: an approach to reduce the kidney uptake of radiolabeled GLP-1R-targeting agents?” (EJNMMI Radiopharmacy and Chemistry, 2021)
Read-outs that look alike come from different tables or passages of the source. One block for each compound: values may come before it. Square brackets hold non-standard residues; d marks the D form. Peptide text beside a SMILES is read from it. Bip(2'-Et-4'-OMe) = CCc1cc(OC)ccc1-c1ccc(C[C@H](N)C(=O)O)cc1; αMePhe(2-F) = C[C@](N)(Cc1ccccc1F)C(=O)O; hPhe = N[C@@H](CCc1ccccc1)C(=O)O; Aib = CC(C)(N)C(=O)O

Key:
[1] = Stability study of the reference radioligand stock solution (RCP by radio-RP-HPLC); type: physicochemical
Description: ^125I-labeling. The radioiodinated reference ligand [Nle^14, [^125I]Tyr(3-I)^40]exendin-4 ([^125I]Tyr(3-I)^40–3) was prepared via the Iodogen method (Salacinski et al., [1981]), with some minor modifications. […] The solution was transferred to a vial, which has been precoated with 15.0 μg Iodogen (34.7 nmol, 139 eq.). Afterwards, 15 ± 5 MBq [^125I] NaI (74 MBq/nmol, 3.7 GBq/mL in 40 mM NaOH, Hartmann Analytic, Braunschweig, Germany) (5.00 μL, 250 pmol, 1.00 eq.) were added, the reaction solution was incubated for 15 min at r.t. and 150 μL thereof were purified by radio-RP-HPLC (0% B (2 min) ➔ 0–37.5% B (3 min) ➔ 37.5% B (35 min) ➔ 38% B (10 min), Method A*, 1 mL/min) to afford 3.15 MBq (48.8% RCY, > 99% RCP) of product [^125I]Tyr(3-I)^40–3. The radioligand was stored in the HPLC solvent (stock solution) at − 80 °C until further use. The radioligand stock solution was used to a maximum of 14 days to ensure a RCP of > 92% (Table 1 in the Additional file 1) and replaced by freshly prepared radioligand afterwards. Prior to the in vitro experiments, the radioligand was dissolved in HBSS (with or w/o 1% BSA) to achieve a final concentration of 0.41 nM in the respective assays. *Method A: solvent A = water + 0.1% TFA, solvent B = acetonitrile + 2% water + 0.1% TFA.
Table 1: Stability study of reference radioligand [^125I]Tyr(3-I)^40]-3, (n = 1).

human GLP-1 receptor [2] = target: T1, human GLP-1 receptor (Homo sapiens, UniProt P43220); parameters: Dr. Timothy Kieffer (University of British Columbia); method as in Mapelli et al., 2009; Haque et al., 2010a; details: CHO cells stably overexpressing the human GLP-1 receptor; ref Mapelli et al., 2009; Haque et al., 2010a; read-out: EC50 (cAMP production); cited from earlier work
T1 sequence (P43220 24-463): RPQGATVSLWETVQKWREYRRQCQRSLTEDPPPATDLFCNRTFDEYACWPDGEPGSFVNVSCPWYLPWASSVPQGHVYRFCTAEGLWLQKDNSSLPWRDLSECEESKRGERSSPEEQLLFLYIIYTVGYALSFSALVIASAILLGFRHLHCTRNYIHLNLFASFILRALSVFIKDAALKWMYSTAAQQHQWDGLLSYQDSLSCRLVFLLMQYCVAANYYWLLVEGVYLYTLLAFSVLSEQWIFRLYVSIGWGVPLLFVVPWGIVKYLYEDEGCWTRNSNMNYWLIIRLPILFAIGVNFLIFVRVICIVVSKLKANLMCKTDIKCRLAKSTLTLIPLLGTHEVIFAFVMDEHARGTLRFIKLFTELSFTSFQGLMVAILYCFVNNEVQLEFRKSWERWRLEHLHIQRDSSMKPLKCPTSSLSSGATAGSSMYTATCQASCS

human GLP-1 receptor [3] = target: T1, human GLP-1 receptor; assay: Competitive binding (IC50) on HEK293-hGLP-1R cells with radioligand [Nle^14, [^125I]Tyr(3-I)^40]exendin-4; parameters: Dr. Timothy Kieffer (University of British Columbia); host or cells: HEK293; details: for IC50 ± SD (result in words): ligand range 10^-11 to 10^-5 M
Description: Dr. Timothy Kieffer (University of British Columbia, Vancouver, Canada). Cells were cultivated in high glucose DMEM (25.0 mM D-glucose, 3.97 mM GlutaMAX; REF-number: 61965–026; Fisher Scientific GmbH, Schwerte, Germany) supplemented with 10% fetal bovine serum and 1 mM sodium pyruvate. Medium for stably transfected HEK293-hGLP-1R cells was constantly supplemented with 1 mg/mL Geneticin (G-418 Biochrom, Merck KgaA, Darmstadt, Germany) as selection antibiotic. The cell line was kept at 37 °C in a humidified 5% CO2 atmosphere. One day (24 ± 2 h) prior to all in vitro experiments, the cultivated HEK293-h-GLP-1R cells were harvested using a mixture of trypsin/ethylenediaminetetraacetic acid (0.05%/0.02%) in phosphate-buffered saline (PBS) (Gibco, Germany) and centrifuged at 1300 rpm (ca. 190×g) for 3 min at room temperature (Heraeus Megafuge 16, Thermo Fisher, Germany). After centrifugation, the supernatant was disposed and the cell pellet was resuspended in culture medium. Cells were counted with a Neubauer hemocytometer (Paul Marienfeld GmbH & Co. KG, Lauda-Königshofen, Germany) and seeded in 24-well plates. IC50 values were determined by transferring 1.50 × 10^5 cells/mL per well into 24-well plates.
Detailed information on affinity experiments is provided in the SI. In brief, competitive binding studies were determined on HEK293-hGLP-1R cells (1.50 × 10^5 cells in 1 mL/well) after incubation at 4 °C for 2 hours, using [^125I]Tyr(3-I)^40–3 (0.41 nM/well) as reference radioligand (n = 3).
Dr. Timothy J. Kieffer (University of British Columbia, Vancouver, Canada). Cells were cultivated in high glucose DMEM (25.0 mM D-glucose, 3.97 mM GlutaMAX; REF-number: 61965-026; Fisher Scientific GmbH, Schwerte, Germany) supplemented with 10% fetal bovine serum and 1 mM sodium pyruvate. Medium for stably transfected HEK293-hGLP-1R cells was constantly supplemented with 1 mg/mL Geneticin (G-418 Biochrom, Merck KgaA, Darmstadt, Germany) as selection antibiotic. The cell line was kept at 37 °C in a humidified 5% CO2 atmosphere. One day (24 ± 2 h) prior to all in vitro experiments, the cultivated cells were harvested using a mixture of trypsin/ethylenediaminetetraacetic acid (0.05%/0.02%) in phosphate-buffered saline (PBS) (Merck KgaA, Darmstadt, Germany) and centrifuged at 1300 rpm (ca. 190 × g) for 3 min at room temperature (Heraeus Megafuge 16, Thermo Fisher Scientific, Darmstadt, Germany). After centrifugation, the supernatant was disposed and the cell pellet was resuspended in culture medium. Cells were counted with a Neubauer hemocytometer (Paul Marienfeld GmbH & Co. KG, Lauda-Königshofen, Germany) and seeded in 24-well plates (Greiner Bio-One, Kremsmünster, Austria). IC50 values were determined by transferring 1.50 × 10^5 cells/mL per well into 24-well plates (Greiner Bio-One, Kremsmünster, Austria).
The culture medium was removed and the cells were washed with 500 µL of Hank’s balanced salt solution (HBSS) (Merck KGaA, Darmstadt, Germany), containing 1% bovine serum albumin (BSA) (Merck KGaA, Darmstadt, Germany). Afterwards, 200 µL of HBSS (1% BSA) were added to each well and equilibrated on ice (4 °C) for 15 min. 25 µL/well of either HBSS (1% BSA) (= control) or of solutions, containing the respective unlabeled ligand in increasing concentrations (10^-10 - 10^-4 M in HBSS) were added, followed by the addition of 25 µL of [Nle^14, [^125I]Tyr(3-I)^40]exendin-4 in HBSS (1% BSA) to each well. Experiments were carried out in triplicates for each concentration. The final concentrations of unlabeled ligand ranged from 10^-11 - 10^-5 M and the final radioligand concentration was 0.41 nM in all binding assays. The cells were incubated for two hours at 4 °C. Incubation was terminated by removal of the incubation medium. The cells were washed with 250 µL of HBSS (1% BSA) and the wash medium was combined with the respective supernatant. This fraction represents the amount of free radioligand. The cells were lysed by addition of 250 µL of 1 M aqueous NaOH. […]

human GLP-1 receptor [4] = target: T1, human GLP-1 receptor; assay: as above; parameters: Dr. Timothy Kieffer (University of British Columbia); host or cells: HEK293; details: w/o BSA, HBSS
[5] = parameters: method as in Gotthardt et al., 2007; details: rats, pre-administration; ref Gotthardt et al., 2007; cited from earlier work

RCP ([1]; 0 days after radioiodination, stock in HPLC solvent at −80 °C, n = 4): ≥ 95% (n = 4)
RCP ([1]; 4 days after radioiodination, stock in HPLC solvent at −80 °C): 95%
RCP ([1]; 9 days after radioiodination, stock in HPLC solvent at −80 °C): 95%
RCP ([1]; 16 days after radioiodination, stock in HPLC solvent at −80 °C): 92%
RCP ([1]; 20 days after radioiodination, stock in HPLC solvent at −80 °C): 82%
RCP ([1]; 24 days after radioiodination, stock in HPLC solvent at −80 °C): 82%
RCP ([1]; 29 days after radioiodination, stock in HPLC solvent at −80 °C): 78%
RCP ([1]; 36 days after radioiodination, stock in HPLC solvent at −80 °C): 78%
RCP ([1]; stock solution used to a maximum of 14 days, −80 °C): > 92%
Compound: [Nle^14, [^125I]Tyr(3-I)^40]exendin-4 [[^125I]Tyr(3-I)^40-3]

IC50 (human GLP-1 receptor [3]; w/ BSA (1% BSA), HEK293-hGLP-1R cells, 4 °C, 2 h, 0.41 nM radioligand, read-out: IC50 ± SD): 669 ± 242 nM
Compound: CCc1cc(OC)ccc1-c1ccc(C[C@H](NC(=O)[C@H](CC(=O)O)NC(=O)[C@H](CO)NC(=O)[C@@H](NC(=O)[C@](C)(Cc2ccccc2F)NC(=O)[C@@H](NC(=O)CNC(=O)[C@H](CCC(=O)O)NC(=O)C(C)(C)NC(=O)[C@@H](N)Cc2c[nH]cn2)[C@@H](C)O)[C@@H](C)O)C(=O)N[C@@H](CCc2ccccc2)C(N)=O)cc1 [Peptide 1, H-L-His-Aib-L-Glu-Gly-L-Thr-L-(α-Me)Phe(2-F)-L-Thr-L-Ser-L-Asp-L-(2’-Et, 4’-OMe)BIP-L-homoPhe-NH2, reference compound] (H-H[Aib]EGT[αMePhe(2-F)]TSD[Bip(2'-Et-4'-OMe)][hPhe]-NH2)
EC50 (human GLP-1 receptor [2]): 0.031 nM

Compound: C[C@@H](O)[C@H](NC(=O)CNC(=O)[C@H](CCC(=O)O)NC(=O)C(C)(C)NC(=O)[C@@H](N)Cc1c[nH]cn1)C(=O)N[C@@](C)(Cc1ccccc1F)C(=O)N[C@H](C(=O)N[C@@H](CO)C(=O)N[C@@H](CC(=O)O)C(=O)N[C@@H](CNC(=O)c1ccc([Si](F)(C(C)(C)C)C(C)(C)C)cc1)C(=O)N[C@@H](CCc1ccccc1)C(N)=O)[C@@H](C)O [Peptide 5, H-L-His-Aib-L-Glu-Gly-L-Thr-L-(α-Me)Phe(2-F)-L-Thr-L-Ser-L-Asp-L-Dap(SiFA)-L-homoPhe-NH2]
maximal radioligand displacement (of maximal radioligand binding) (human GLP-1 receptor [4]): 61–69%
IC50 (human GLP-1 receptor [3]): 189 ± 35 nM
IC50 ± SD (result in words) (human GLP-1 receptor [3]; w/ BSA (1% BSA)): no detectable affinity

Compound: NCCCC[C@H](N)C(=O)O [L-lysine]
decrease of kidney uptake of [^111In]In-DTPA-exendin-4 [5]: did not show any effect

Compound: C[C@@H](O)[C@H](NC(=O)CNC(=O)[C@H](CCC(=O)O)NC(=O)C(C)(C)NC(=O)[C@@H](N)Cc1c[nH]cn1)C(=O)N[C@@](C)(Cc1ccccc1)C(=O)N[C@H](C(=O)N[C@@H](CO)C(=O)N[C@@H](CC(=O)O)C(=O)N[C@@H](CNC(=O)c1ccc([Si](F)(C(C)(C)C)C(C)(C)C)cc1)C(=O)N[C@@H](CCc1ccccc1)C(N)=O)[C@@H](C)O [Peptide 4, H-L-His-Aib-L-Glu-Gly-L-Thr-L-(α-Me)Phe-L-Thr-L-Ser-L-Asp-L-Dap(SiFA)-L-homoPhe-NH2]
maximal radioligand displacement (of maximal radioligand binding) (human GLP-1 receptor [4]): 61–69%
IC50 (human GLP-1 receptor [3]): 2400 nM
IC50 ± SD (result in words) (human GLP-1 receptor [3]; w/ BSA (1% BSA)): no detectable affinity
